# Read-outs that look alike come from different tables or passages of the source. Square brackets hold non-standard residues; d marks the D form. Peptide text beside a SMILES is read from it.
# Columns and labels:
# [1] = tested on: Escherichia coli clinical strains; assay type: cell-based; conditions: microdilution, Muller Hinton broth-cation adjusted, 0.02% BSA, 0.2% acetic acid
# Method in brief: (§1)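 Broth microdilution in Mueller Hinton broth, inoculum adjusted to 5.0×10^5 cfu/ml, peptides tested at 0.125 to 128 μg/ml, 37° C for 20 to 24 hours. Yeast assays were run in potato dextrose broth. MIC was taken as the lowest concentration with no visible growth.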
# [2] = tested on: Pseudomonas aeruginosa clinical strains; assay type: cell-based; conditions: microdilution, Muller Hinton broth-cation adjusted, 0.02% BSA, 0.2% acetic acid
# Method in brief: as §1
# [3] = tested on: Klebsiella pneumoniae clinical strains; assay type: cell-based; conditions: microdilution, Muller Hinton broth-cation adjusted, 0.02% BSA, 0.2% acetic acid
# Method in brief: as §1
# [4] = tested on: C. glabrata clinical strains; test: MIC, clinical yeast strains; assay type: cell-based, Candida glabrata; design: unit: µg/ml
# Method in brief: as §1
# [5] = tested on: Enterobacter cloacae clinical strains; assay type: cell-based; design: Minimum inhibitory concentration: unit: μg/ml; conditions: microdilution, Muller Hinton broth-cation adjusted, 0.02% BSA, 0.2% acetic acid
# Method in brief: as §1
# [6] = tested on: Streptococcus pneumoniae clinical strains; assay type: cell-based; design: Minimum inhibitory concentration: unit: μg/ml; conditions: microdilution, Muller Hinton broth-cation adjusted, 0.02% BSA, 0.2% acetic acid
# Method in brief: as §1
# [7] = tested on: Staphylococcus aureus clinical strains; assay type: cell-based; design: Minimum inhibitory concentration: unit: μg/ml; conditions: microdilution, Muller Hinton broth-cation adjusted, 0.02% BSA, 0.2% acetic acid
# Method in brief: as §1
# [8] = tested on: Serratia marcescens clinical strains; assay type: cell-based; design: Minimum inhibitory concentration: unit: μg/ml; conditions: microdilution, Muller Hinton broth-cation adjusted, 0.02% BSA, 0.2% acetic acid
# Method in brief: as §1
# [9] = tested on: Proteus mirabilis clinical strains; assay type: cell-based; design: Minimum inhibitory concentration: unit: μg/ml; conditions: microdilution, Muller Hinton broth-cation adjusted, 0.02% BSA, 0.2% acetic acid
# Method in brief: as §1
# [10] = tested on: Candida albicans clinical strains; test: MIC, clinical yeast strains; assay type: cell-based; design: unit: μg/ml
# Method in brief: as §1
# [11] = tested on: C. quillermondiae clinical strains; test: MIC, clinical yeast strains; assay type: cell-based, Candida quillermondiae; design: unit: μg/ml; conditions: C. quillermondiae clinical yeast strain 1
# Method in brief: as §1
# [12] = tested on: C. parapsilosis clinical strains; test: MIC, clinical yeast strains; assay type: cell-based, Candida parapsilosis; design: unit: µg/ml
# Method in brief: as §1
# [13] = Escherichia coli clinical strain 1
# [14] = Escherichia coli clinical strain 2
# [15] = Escherichia coli clinical strain 3
# [16] = Escherichia coli clinical strain 4
# [17] = Escherichia coli clinical strain 5
# [18] = Pseudomonas aeruginosa clinical strain 1
# [19] = Pseudomonas aeruginosa clinical strain 2
# [20] = Pseudomonas aeruginosa clinical strain 3
# [21] = Pseudomonas aeruginosa clinical strain 4
# [22] = Pseudomonas aeruginosa clinical strain 5
# [23] = Klebsiella pneumoniae clinical strain 1
# [24] = Klebsiella pneumoniae clinical strain 2
# [25] = Klebsiella pneumoniae clinical strain 3
# [26] = Klebsiella pneumoniae clinical strain 4
# [27] = Klebsiella pneumoniae clinical strain 5
# [28] = C. glabrata clinical yeast strain 1
# [29] = C. glabrata clinical yeast strain 2
# [30] = C. glabrata clinical yeast strain 3
# [31] = C. glabrata clinical yeast strain 4
# [32] = Enterobacter cloacae clinical strain 1
# [33] = Enterobacter cloacae clinical strain 2
# [34] = Enterobacter cloacae clinical strain 3
# [35] = Enterobacter cloacae clinical strain 4
# [36] = Enterobacter cloacae clinical strain 5
# [37] = Streptococcus pneumoniae clinical strain 1
# [38] = Streptococcus pneumoniae clinical strain 2
# [39] = Streptococcus pneumoniae clinical strain 3
# [40] = Streptococcus pneumoniae clinical strain 4
# [41] = Streptococcus pneumoniae clinical strain 5
# [42] = Staphylococcus aureus clinical strain 1
# [43] = Staphylococcus aureus clinical strain 2
# [44] = Staphylococcus aureus clinical strain 3
# [45] = Staphylococcus aureus clinical strain 4
# [46] = Staphylococcus aureus clinical strain 5
# [47] = Serratia marcescens clinical strain 1
# [48] = Serratia marcescens clinical strain 2
# [49] = Serratia marcescens clinical strain 3
# [50] = Serratia marcescens clinical strain 4
# [51] = Serratia marcescens clinical strain 5
# [52] = Proteus mirabilis clinical strain 1
# [53] = Proteus mirabilis clinical strain 2
# [54] = Proteus mirabilis clinical strain 3
# [55] = Proteus mirabilis clinical strain 4
# [56] = Proteus mirabilis clinical strain 5
# [57] = Candida albicans clinical yeast strain 1
# [58] = Candida albicans clinical yeast strain 2
# [59] = Candida albicans clinical yeast strain 3
# [60] = Candida albicans clinical yeast strain 4
# [61] = Candida albicans clinical yeast strain 5
# [62] = C. parapsilosis clinical yeast strain 1
# [63] = C. parapsilosis clinical yeast strain 2
# [64] = C. parapsilosis clinical yeast strain 3
# [65] = C. parapsilosis clinical yeast strain 4
structure (smiles),measurement,setting,value
CC[C@@H](C)[C@@H](N)C(=O)N[C@H](Cc1c[nH]c2ccccc12)C(=O)N[C@H](CCCCN)C(=O)N[C@H](CCCNC(=N)N)C(=O)N[C@H](Cc1ccccc1)C(=O)N[C@H](CCCNC(=N)N)C(=O)N[C@H](CC(C)C)C(=O)N[C@H](Cc1ccccc1)C(=O)N[C@H](CCCCN)C(=O)N[C@H](CCCCN)C(=O)N[C@H](Cc1c[nH]c2ccccc12)C(=O)O [Chain304D] (H-[dI][dW][dK][dR][dF][dR][dL][dF][dK][dK][dW]-OH),Minimum inhibitory concentration,[1]; [13],1
same,Minimum inhibitory concentration,[1]; [14],16
same,Minimum inhibitory concentration,[1]; [15],16
same,Minimum inhibitory concentration,[1]; [16],32
same,Minimum inhibitory concentration,[1]; [17],32
same,Minimum inhibitory concentration,[2]; [18],32
same,Minimum inhibitory concentration,[2]; [19],64
same,Minimum inhibitory concentration,[2]; [20],64
same,Minimum inhibitory concentration,[2]; [21],64
same,Minimum inhibitory concentration,[2]; [22],16
same,Minimum inhibitory concentration,[3]; [23],>128
same,Minimum inhibitory concentration,[3]; [24],>128
same,Minimum inhibitory concentration,[3]; [25],>128
same,Minimum inhibitory concentration,[3]; [26],>128
same,Minimum inhibitory concentration,[3]; [27],64
same,Minimum inhibitory concentration,[4]; [28],16
same,Minimum inhibitory concentration,[4]; [29],16
same,Minimum inhibitory concentration,[4]; [30],8
same,Minimum inhibitory concentration,[4]; [31],64
same,Minimum inhibitory concentration,[5]; [32],64
same,Minimum inhibitory concentration,[5]; [33],64
same,Minimum inhibitory concentration,[5]; [34],128
same,Minimum inhibitory concentration,[5]; [35],128
same,Minimum inhibitory concentration,[5]; [36],32
same,Minimum inhibitory concentration,[6]; [37],128
same,Minimum inhibitory concentration,[6]; [38],128
same,Minimum inhibitory concentration,[6]; [39],128
same,Minimum inhibitory concentration,[6]; [40],128
same,Minimum inhibitory concentration,[6]; [41],64
same,Minimum inhibitory concentration,[7]; [42],32
same,Minimum inhibitory concentration,[7]; [43],32
same,Minimum inhibitory concentration,[7]; [44],16
same,Minimum inhibitory concentration,[7]; [45],16
same,Minimum inhibitory concentration,[7]; [46],16
same,Minimum inhibitory concentration,[8]; [47],>128
same,Minimum inhibitory concentration,[8]; [48],>128
same,Minimum inhibitory concentration,[8]; [49],>128
same,Minimum inhibitory concentration,[8]; [50],>128
same,Minimum inhibitory concentration,[8]; [51],>128
same,Minimum inhibitory concentration,[9]; [52],>128
same,Minimum inhibitory concentration,[9]; [53],>128
same,Minimum inhibitory concentration,[9]; [54],>128
same,Minimum inhibitory concentration,[9]; [55],>128
same,Minimum inhibitory concentration,[9]; [56],>128
same,Minimum inhibitory concentration,[10]; [57],16
same,Minimum inhibitory concentration,[10]; [58],16
same,Minimum inhibitory concentration,[10]; [59],16
same,Minimum inhibitory concentration,[10]; [60],16
same,Minimum inhibitory concentration,[10]; [61],32
same,Minimum inhibitory concentration,[11],16
same,Minimum inhibitory concentration,[12]; [62],64
same,Minimum inhibitory concentration,[12]; [63],64
same,Minimum inhibitory concentration,[12]; [64],32
same,Minimum inhibitory concentration,[12]; [65],16
CC(C)C[C@@H](NC(=O)[C@@H](Cc1c[nH]c2ccccc12)NC(=O)[C@@H](Cc1ccccc1)NC(=O)[C@@H](Cc1c[nH]c2ccccc12)NC(=O)[C@@H](CCCCN)NC(=O)[C@@H](CCCNC(=N)N)NC(=O)[C@H](N)Cc1c[nH]c2ccccc12)C(=O)N[C@H](Cc1ccccc1)C(=O)N[C@H](CCCCN)C(=O)N[C@H](CCCCN)C(=O)N[C@H](CCCNC(=N)N)C(=O)O [Chain309D] (H-[dW][dR][dK][dW][dF][dW][dL][dF][dK][dK][dR]-OH),Minimum inhibitory concentration,[1]; [13],0.5
same,Minimum inhibitory concentration,[1]; [14],32
same,Minimum inhibitory concentration,[1]; [15],16
same,Minimum inhibitory concentration,[1]; [16],32
same,Minimum inhibitory concentration,[1]; [17],16
same,Minimum inhibitory concentration,[2]; [18],16
same,Minimum inhibitory concentration,[2]; [19],32
same,Minimum inhibitory concentration,[2]; [20],16
same,Minimum inhibitory concentration,[2]; [21],32
same,Minimum inhibitory concentration,[2]; [22],8
same,Minimum inhibitory concentration,[3]; [23],128
same,Minimum inhibitory concentration,[3]; [24],32
same,Minimum inhibitory concentration,[3]; [25],>128
same,Minimum inhibitory concentration,[3]; [26],32
same,Minimum inhibitory concentration,[3]; [27],128
same,Minimum inhibitory concentration,[4]; [28],32
same,Minimum inhibitory concentration,[4]; [29],64
same,Minimum inhibitory concentration,[4]; [30],4
same,Minimum inhibitory concentration,[4]; [31],128
same,Minimum inhibitory concentration,[5]; [32],>128
same,Minimum inhibitory concentration,[5]; [33],128
same,Minimum inhibitory concentration,[5]; [34],64
same,Minimum inhibitory concentration,[5]; [35],64
same,Minimum inhibitory concentration,[5]; [36],32
same,Minimum inhibitory concentration,[6]; [37],64
same,Minimum inhibitory concentration,[6]; [38],64
same,Minimum inhibitory concentration,[6]; [39],64
same,Minimum inhibitory concentration,[6]; [40],64
same,Minimum inhibitory concentration,[6]; [41],64
same,Minimum inhibitory concentration,[7]; [42],8
same,Minimum inhibitory concentration,[7]; [43],16
same,Minimum inhibitory concentration,[7]; [44],8
same,Minimum inhibitory concentration,[7]; [45],8
same,Minimum inhibitory concentration,[7]; [46],8
same,Minimum inhibitory concentration,[8]; [47],>128
same,Minimum inhibitory concentration,[8]; [48],>128
same,Minimum inhibitory concentration,[8]; [49],>128
same,Minimum inhibitory concentration,[8]; [50],>128
same,Minimum inhibitory concentration,[8]; [51],>128
same,Minimum inhibitory concentration,[9]; [52],>128
same,Minimum inhibitory concentration,[9]; [53],>128
same,Minimum inhibitory concentration,[9]; [54],>128
same,Minimum inhibitory concentration,[9]; [55],>128
same,Minimum inhibitory concentration,[9]; [56],>128
same,Minimum inhibitory concentration,[10]; [57],32
same,Minimum inhibitory concentration,[10]; [58],32
same,Minimum inhibitory concentration,[10]; [59],16
same,Minimum inhibitory concentration,[10]; [60],16
same,Minimum inhibitory concentration,[10]; [61],32
same,Minimum inhibitory concentration,[11],8
same,Minimum inhibitory concentration,[12]; [62],64
same,Minimum inhibitory concentration,[12]; [63],64
same,Minimum inhibitory concentration,[12]; [64],32
same,Minimum inhibitory concentration,[12]; [65],16

# Source: patent US10457709B2, “Antimicrobial peptides, their variants and uses” (priority 2015, dated 2019)
